Data: patent publication US6740642B2, “Macrolides with antibacterial activity” (BAsilea Parmaceutica AG, priority 2000, dated 2004)
Values after ≈ are worked out from the molar mass of the structure shown.

Key:
[1] = system: H. influenzae Christy; experiment: MIC, agar dilution, HTM medium; assay type: cell-based, Haemophilus influenzae; details: Haemophilus influenzae, read-out: MIC
Text: (§1) The biological activities of compounds of the present invention against Haemophilus influenzae have been determined by standard agar dilution method using HTM medium (National Committee for Clinical Laboratory Standards. 1997. Methods for dilution antimicrobial susceptibility tests for bacteria that grow aerobically, 4th edition. Approved standard M7-A4. National Committee for Clinical Laboratory Standards, Wayne, Pa.).

[2] = system: H. influenzae 12214; experiment: MIC, agar dilution, HTM medium; assay type: cell-based, Haemophilus influenzae; details: Haemophilus influenzae, read-out: MIC
Text: as §1

[3] = system: H. influenzae Rd KW20; experiment: MIC, agar dilution, HTM medium; assay type: cell-based, Haemophilus influenzae; details: Haemophilus influenzae, RDKW20, read-out: MIC
Text: as §1

[4] = system: H. influenzae 1; experiment: MIC, agar dilution, HTM medium; assay type: cell-based, Haemophilus influenzae; details: Haemophilus influenzae, read-out: MIC
Text: as §1

[5] = system: H. influenzae H36 ODL; experiment: MIC, agar dilution, HTM medium; assay type: cell-based, Haemophilus influenzae; details: Haemophilus influenzae, H36ODL, read-out: MIC
Text: as §1

[6] = system: H. influenzae 3457; experiment: MIC, agar dilution, HTM medium; assay type: cell-based, Haemophilus influenzae; details: Haemophilus influenzae, read-out: MIC
Text: as §1

[7] = system: H. influenzae 2947; experiment: MIC, agar dilution, HTM medium; assay type: cell-based, Haemophilus influenzae; details: Haemophilus influenzae, read-out: MIC
Text: as §1

[8] = system: H. influenzae 23145; experiment: MIC, agar dilution, HTM medium; assay type: cell-based, Haemophilus influenzae; details: Haemophilus influenzae, read-out: MIC
Text: as §1

[9] = system: H. influenzae H20 HDL; experiment: MIC, agar dilution, HTM medium; assay type: cell-based, Haemophilus influenzae; details: Haemophilus influenzae, H20HDL, read-out: MIC
Text: as §1

[10] = system: H. influenzae 11; experiment: MIC, agar dilution, HTM medium; assay type: cell-based, Haemophilus influenzae; details: Haemophilus influenzae, read-out: MIC
Text: as §1

[11] = system: H. influenzae H28 HEL; experiment: MIC, agar dilution, HTM medium; assay type: cell-based, Haemophilus influenzae; details: Haemophilus influenzae, H28HEL, read-out: MIC
Text: as §1

[12] = system: H. influenzae ATCC 49247; experiment: MIC, agar dilution, HTM medium; assay type: cell-based, Haemophilus influenzae; details: Haemophilus influenzae, ATCC49247, read-out: MIC
Text: as §1

[13] = system: H. influenzae B 1501; experiment: MIC, agar dilution, HTM medium; assay type: cell-based, Haemophilus influenzae; details: Haemophilus influenzae, B1501, read-out: MIC
Text: as §1

[14] = system: H. influenzae 4139; experiment: MIC, agar dilution, HTM medium; assay type: cell-based, Haemophilus influenzae; details: Haemophilus influenzae, read-out: MIC
Text: as §1

[15] = system: H. influenzae 3640; experiment: MIC, agar dilution, HTM medium; assay type: cell-based, Haemophilus influenzae; details: Haemophilus influenzae, read-out: MIC
Text: as §1

[16] = system: H. influenzae 3201; experiment: MIC, agar dilution, HTM medium; assay type: cell-based, Haemophilus influenzae; details: Haemophilus influenzae, read-out: MIC
Text: as §1

[17] = system: H. influenzae H13 LAH; experiment: MIC, agar dilution, HTM medium; assay type: cell-based, Haemophilus influenzae; details: Haemophilus influenzae, H13LAH, read-out: MIC
Text: as §1

[18] = system: H. influenzae QK 50; experiment: MIC, agar dilution, HTM medium; assay type: cell-based, Haemophilus influenzae; details: Haemophilus influenzae, QK50, read-out: MIC
Text: as §1

[19] = system: H. influenzae ATCC 9334; experiment: MIC, agar dilution, HTM medium; assay type: cell-based, Haemophilus influenzae; details: Haemophilus influenzae, ATCC9334, read-out: MIC
Text: as §1

[20] = system: H. influenzae QK 12/87; experiment: MIC, agar dilution, HTM medium; assay type: cell-based, Haemophilus influenzae; details: Haemophilus influenzae, QK12/87, read-out: MIC
Text: as §1

[21] = system: H. influenzae 23369; experiment: MIC, agar dilution, HTM medium; assay type: cell-based, Haemophilus influenzae; details: Haemophilus influenzae, read-out: MIC
Text: as §1

[22] = system: S. aureus 745; experiment: MIC, standard microdilution; assay type: cell-based, Staphylococcus aureus; details: Staphylococcus aureus, read-out: minimum inhibitory concentration (MIC)
Text: (§2) The antibacterial activities of the compounds have been determined by standard microdilution technique (National Committee for Clinical Laboratory Standards. 1997. Methods for dilution antimicrobial susceptibility tests for bacteria that grow aerobically, 4th edition. Approved standard M7-A4. National Committee for Clinical Laboratory Standards, Wayne, Pa.).

[23] = system: S. aureus ATCC29213; experiment: MIC, standard microdilution; assay type: cell-based, Staphylococcus aureus; details: Staphylococcus aureus, read-out: minimum inhibitory concentration (MIC)
Text: as §2

[24] = system: S. aureus 1086; experiment: MIC, standard microdilution; assay type: cell-based, Staphylococcus aureus; details: Staphylococcus aureus, read-out: minimum inhibitory concentration (MIC)
Text: as §2

[25] = system: E. coli ATCC25922; experiment: MIC, standard microdilution; assay type: cell-based; details: Escherichia coli, read-out: minimum inhibitory concentration (MIC)
Text: as §2

[26] = system: P. aeruginosa ATCC27853 (+Ery. 32 μg/ml); experiment: MIC, standard microdilution; assay type: cell-based
Text: as §2

[27] = system: St. pneumoniae 1/4; experiment: MIC, standard microdilution; assay type: cell-based, Streptococcus pneumoniae; details: Streptococcus pneumoniae, read-out: minimum inhibitory concentration (MIC)
Text: as §2

[28] = system: St. pneumoniae SL199T; experiment: MIC, standard microdilution; assay type: cell-based, Streptococcus pneumoniae; details: Streptococcus pneumoniae, read-out: minimum inhibitory concentration (MIC)
Text: as §2

[29] = system: St. pneumoniae 12288; experiment: MIC, standard microdilution; assay type: cell-based, Streptococcus pneumoniae; details: Streptococcus pneumoniae, read-out: minimum inhibitory concentration (MIC)
Text: as §2

[30] = system: St. pneumoniae 1/1; experiment: MIC, standard microdilution; assay type: cell-based, Streptococcus pneumoniae; details: Streptococcus pneumoniae, read-out: minimum inhibitory concentration (MIC)
Text: as §2

## CC[C@H]1OC(=O)[C@H](C)C(=O)[C@H](C)[C@@H](O[C@@H]2O[C@H](C)C[C@H](N(C)C)[C@H]2O)[C@](C)(OC)C[C@@H](C)C(=O)[C@H](C)[C@H]2[C@H](SCCn3cnc4c(N)ncnc43)C(=O)O[C@@]21C [Compound I-14, (3S,3aR,4R,6R,8R,9R,10R,12R,15R,15aS)-3-[[2-[6-Amino-9H-purine-9-yl]ethyl]thio]-15-ethyloctahydro-8-methoxy-4,6,8,10,12,15a-hexamethyl-9-[[3,4,6-trideoxy-3-(dimethylamino)-β-D-xylo-hexopyranosyl]oxy]-2H-furo[2,3-c]oxacyclotetradecin-2,5,11,13(3H,6H,12H)-tetrone]
[1]
  MIC: 2 µg/mL (≈ 2.48 µM)
[2]
  MIC: 2 µg/mL (≈ 2.48 µM)
[3]
  MIC: 4 µg/mL (≈ 4.97 µM)
[4]
  MIC: 1 µg/mL (≈ 1.24 µM)
[5]
  MIC: 2 µg/mL (≈ 2.48 µM)
[6]
  MIC: 0.25 µg/mL (≈ 0.311 µM)
[7]
  MIC: 2 µg/mL (≈ 2.48 µM)
[8]
  MIC: 4 µg/mL (≈ 4.97 µM)
[9]
  MIC: 1 µg/mL (≈ 1.24 µM)
[10]
  MIC: 4 µg/mL (≈ 4.97 µM)
[11]
  MIC: 2 µg/mL (≈ 2.48 µM)
[12]
  MIC: 1 µg/mL (≈ 1.24 µM)
[13]
  MIC: 1 µg/mL (≈ 1.24 µM)
[14]
  MIC: 2 µg/mL (≈ 2.48 µM)
[15]
  MIC: 2 µg/mL (≈ 2.48 µM)
[16]
  MIC: 4 µg/mL (≈ 4.97 µM)
[17]
  MIC: 2 µg/mL (≈ 2.48 µM)
[18]
  MIC: 2 µg/mL (≈ 2.48 µM)
[19]
  MIC: 4 µg/mL (≈ 4.97 µM)
[20]
  MIC: 0.5 µg/mL (≈ 0.621 µM)
[21]
  MIC: 4 µg/mL (≈ 4.97 µM)
[22]
  MIC: > 16 µg/mL
[23]
  MIC: ≤ 0.12 µg/mL
[24]
  MIC: ≤ 0.12 µg/mL
[25]
  MIC: 8 µg/mL (≈ 9.94 µM)
[26]
  minimum inhibitory concentration (MIC): >16 µg/mL
[27]
  MIC: 0.25 µg/mL (≈ 0.311 µM)
[28]
  MIC: 0.25 µg/mL (≈ 0.311 µM)
[29]
  MIC: 0.25 µg/mL (≈ 0.311 µM)
[30]
  MIC: ≤ 0.12 µg/mL

## CC[C@H]1OC(=O)[C@H](C)[C@@H](O[C@H]2C[C@@](C)(OC)[C@@H](O)[C@H](C)O2)[C@H](C)[C@@H](O[C@@H]2O[C@H](C)C[C@H](N(C)C)[C@H]2O)[C@](C)(O)C[C@@H](C)C(=O)[C@H](C)[C@@H](O)[C@]1(C)O [Erythromycin (1), erythromycin A]
[1]
  MIC: 4 µg/mL (≈ 5.45 µM)
[2]
  MIC: 4 µg/mL (≈ 5.45 µM)
[3]
  MIC: 4 µg/mL (≈ 5.45 µM)
[4]
  MIC: 4 µg/mL (≈ 5.45 µM)
[5]
  MIC: 4 µg/mL (≈ 5.45 µM)
[6]
  MIC: 0.5 µg/mL (≈ 0.681 µM)
[7]
  MIC: 4 µg/mL (≈ 5.45 µM)
[8]
  MIC: 4 µg/mL (≈ 5.45 µM)
[9]
  MIC: 2 µg/mL (≈ 2.73 µM)
[10]
  MIC: 4 µg/mL (≈ 5.45 µM)
[11]
  MIC: 2 µg/mL (≈ 2.73 µM)
[12]
  MIC: 4 µg/mL (≈ 5.45 µM)
[13]
  MIC: 4 µg/mL (≈ 5.45 µM)
[14]
  MIC: 1 µg/mL (≈ 1.36 µM)
[15]
  MIC: 2 µg/mL (≈ 2.73 µM)
[16]
  MIC: 4 µg/mL (≈ 5.45 µM)
[17]
  MIC: 4 µg/mL (≈ 5.45 µM)
[18]
  MIC: 4 µg/mL (≈ 5.45 µM)
[19]
  MIC: 4 µg/mL (≈ 5.45 µM)
[20]
  MIC: 2 µg/mL (≈ 2.73 µM)
[21]
  MIC: 4 µg/mL (≈ 5.45 µM)
[22]
  MIC: > 64 µg/mL
[23]
  MIC: 0.5 µg/mL (≈ 0.681 µM)
[24]
  MIC: > 32 µg/mL
[25]
  MIC: > 16 µg/mL
[26]
  minimum inhibitory concentration (MIC): >16 µg/mL
[27]
  MIC: 32 µg/mL (≈ 43.6 µM)
[28]
  MIC: > 32 µg/mL
[29]
  MIC: > 32 µg/mL
[30]
  MIC: ≤ 0.12 µg/mL

## CC[C@H]1OC(=O)[C@H](C)[C@@H](O[C@H]2C[C@@](C)(OC)[C@@H](O)C(C)O2)[C@H](C)[C@@H](O[C@@H]2OC(C)C[C@H](N(C)C)[C@H]2O)[C@](C)(O)C[C@@H](C)CN(C)C(C)C(O)[C@]1(C)O (stereo partly drawn) [Azithromycin (3), azithromycin]
[1]
  MIC: 2 µg/mL (≈ 2.67 µM)
[2]
  MIC: 2 µg/mL (≈ 2.67 µM)
[3]
  MIC: 2 µg/mL (≈ 2.67 µM)
[4]
  MIC: 2 µg/mL (≈ 2.67 µM)
[5]
  MIC: 2 µg/mL (≈ 2.67 µM)
[6]
  MIC: 0.5 µg/mL (≈ 0.668 µM)
[7]
  MIC: 2 µg/mL (≈ 2.67 µM)
[8]
  MIC: 2 µg/mL (≈ 2.67 µM)
[9]
  MIC: 1 µg/mL (≈ 1.34 µM)
[10]
  MIC: 2 µg/mL (≈ 2.67 µM)
[11]
  MIC: 1 µg/mL (≈ 1.34 µM)
[12]
  MIC: 2 µg/mL (≈ 2.67 µM)
[13]
  MIC: 1 µg/mL (≈ 1.34 µM)
[14]
  MIC: 0.5 µg/mL (≈ 0.668 µM)
[15]
  MIC: 1 µg/mL (≈ 1.34 µM)
[16]
  MIC: 2 µg/mL (≈ 2.67 µM)
[17]
  MIC: 2 µg/mL (≈ 2.67 µM)
[18]
  MIC: 2 µg/mL (≈ 2.67 µM)
[19]
  MIC: 2 µg/mL (≈ 2.67 µM)
[20]
  MIC: 0.5 µg/mL (≈ 0.668 µM)
[21]
  MIC: 4 µg/mL (≈ 5.34 µM)
